In publication PMC11842588, “A first-in-class selective inhibitor of ERK1/2 and ERK5 overcomes drug resistance with a single-molecule strategy” (Signal Transduction and Targeted Therapy, 2025):

How the values were obtained:
Assay in all cases: Kinase profiling
Format in all cases: biochemical
CDK5/p25(h) = biological target: T1, CDK5/p25(h) (Homo sapiens, UniProt Q00535)
T1 construct: purchased Eurofins Cerep SA (KinaseProfiler)
Method: (§1) 380 kinases inhibitory activities of SKLB-D18 were conducted by Eurofins Cerep SA. The result was illustrated by kinase tree (http://www.kinhub.org/kinmap/).

DDR1(h) = biological target: T2, DDR1(h) (Homo sapiens, UniProt Q08345)
T2 construct: purchased Eurofins Cerep SA (KinaseProfiler)
Method: as §1

Flt3(h) = biological target: T3, Flt3(h) (Homo sapiens, UniProt P36888)
T3 construct: purchased Eurofins Cerep SA (KinaseProfiler)
Method: as §1

HIPK2(h) = biological target: T4, HIPK2(h) (Homo sapiens, UniProt Q9H2X6)
T4 construct: purchased Eurofins Cerep SA (KinaseProfiler)
Method: as §1

PTK5(h) = biological target: T5, PTK5(h) (Homo sapiens, UniProt P42685)
T5 construct: purchased Eurofins Cerep SA (KinaseProfiler)
Method: as §1

PKD3(h) = biological target: T6, PKD3(h) (Homo sapiens, UniProt O94806)
T6 construct: purchased Eurofins Cerep SA (KinaseProfiler)
Method: as §1

ULK1(h) = biological target: T7, ULK1(h) (Homo sapiens, UniProt O75385)
T7 construct: purchased Eurofins Cerep SA (KinaseProfiler)
Method: as §1

cSRC(h) = biological target: T8, cSRC(h) (Homo sapiens, UniProt P12931)
T8 construct: purchased Eurofins Cerep SA (KinaseProfiler)
Method: as §1

LTK(h) = biological target: T9, LTK(h) (Homo sapiens, UniProt P29376)
T9 construct: purchased Eurofins Cerep SA (KinaseProfiler)
Method: as §1

PDGFRβ(h) = biological target: T10, PDGFRβ(h) (Homo sapiens, UniProt P09619)
T10 construct: purchased Eurofins Cerep SA (KinaseProfiler)
Method: as §1

STK16(h) = biological target: T11, STK16(h) (Homo sapiens, UniProt O75716)
T11 construct: purchased Eurofins Cerep SA (KinaseProfiler)
Method: as §1

GRK6(h) = biological target: T12, GRK6(h) (Homo sapiens, UniProt P43250)
T12 construct: purchased Eurofins Cerep SA (KinaseProfiler)
Method: as §1

Fms(h) = biological target: T13, Fms(h) (Homo sapiens, UniProt P07333)
T13 construct: purchased Eurofins Cerep SA (KinaseProfiler)
Method: as §1

EphA2(h) = biological target: T14, EphA2(h) (Homo sapiens, UniProt P29317)
T14 construct: purchased Eurofins Cerep SA (KinaseProfiler)
Method: as §1

Lck(h) = biological target: T15, Lck(h) (Homo sapiens, UniProt P06239)
T15 construct: purchased Eurofins Cerep SA (KinaseProfiler)
T15 sequence (P06239 whole entry): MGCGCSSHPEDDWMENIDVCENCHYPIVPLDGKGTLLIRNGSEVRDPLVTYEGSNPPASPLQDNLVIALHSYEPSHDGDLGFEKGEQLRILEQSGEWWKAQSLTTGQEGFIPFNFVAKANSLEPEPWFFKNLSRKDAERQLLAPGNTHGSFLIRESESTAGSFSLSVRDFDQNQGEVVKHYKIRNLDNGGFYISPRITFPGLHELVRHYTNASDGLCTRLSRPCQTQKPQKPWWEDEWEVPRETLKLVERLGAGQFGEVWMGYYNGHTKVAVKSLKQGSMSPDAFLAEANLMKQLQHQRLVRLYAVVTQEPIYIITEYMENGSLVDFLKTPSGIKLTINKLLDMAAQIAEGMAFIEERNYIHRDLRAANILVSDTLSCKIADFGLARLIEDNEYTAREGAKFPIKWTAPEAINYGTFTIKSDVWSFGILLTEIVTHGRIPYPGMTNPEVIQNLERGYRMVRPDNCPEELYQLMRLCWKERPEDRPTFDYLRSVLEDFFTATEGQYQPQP
Method: as §1

TrkC(h) = biological target: T16, TrkC(h) (Homo sapiens, UniProt Q16288)
T16 construct: purchased Eurofins Cerep SA (KinaseProfiler)
Method: as §1

DYRK1A(h) = biological target: T17, DYRK1A(h) (Homo sapiens, UniProt Q13627)
T17 construct: purchased Eurofins Cerep SA (KinaseProfiler)
Method: as §1

TAF1L(h) = biological target: T18, TAF1L(h) (Homo sapiens, UniProt Q8IZX4)
T18 construct: purchased Eurofins Cerep SA (KinaseProfiler)
Method: as §1

JNK1α1(h) = biological target: T19, JNK1α1(h) (Homo sapiens, UniProt P45983)
T19 construct: purchased Eurofins Cerep SA (KinaseProfiler)
Method: as §1

PASK(h) = biological target: T20, PASK(h) (Homo sapiens, UniProt Q96RG2)
T20 construct: purchased Eurofins Cerep SA (KinaseProfiler)
Method: as §1

CDK16/cyclinY(h) = biological target: T21, CDK16/cyclinY(h) (Homo sapiens, UniProt Q00536)
T21 construct: purchased Eurofins Cerep SA (KinaseProfiler)
Method: as §1

MATK(h) = biological target: T22, MATK(h) (Homo sapiens, UniProt P42679)
T22 construct: purchased Eurofins Cerep SA (KinaseProfiler)
T22 sequence (P42679 whole entry): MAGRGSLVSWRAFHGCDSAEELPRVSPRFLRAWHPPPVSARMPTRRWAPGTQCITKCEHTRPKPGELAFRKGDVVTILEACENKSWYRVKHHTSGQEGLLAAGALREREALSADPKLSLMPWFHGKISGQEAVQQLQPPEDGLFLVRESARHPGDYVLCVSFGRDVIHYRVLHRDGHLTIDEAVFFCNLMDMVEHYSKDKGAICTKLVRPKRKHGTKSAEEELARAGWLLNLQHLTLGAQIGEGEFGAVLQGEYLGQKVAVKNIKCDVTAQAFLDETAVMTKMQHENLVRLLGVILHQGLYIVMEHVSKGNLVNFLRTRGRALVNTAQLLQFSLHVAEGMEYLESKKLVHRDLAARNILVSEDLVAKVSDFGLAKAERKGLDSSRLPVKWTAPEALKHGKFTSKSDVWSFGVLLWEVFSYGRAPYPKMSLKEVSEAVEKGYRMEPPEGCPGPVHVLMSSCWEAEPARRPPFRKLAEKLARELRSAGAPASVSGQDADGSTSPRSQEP
Method: as §1

HIPK1(h) = biological target: T23, HIPK1(h) (Homo sapiens, UniProt Q86Z02)
T23 construct: purchased Eurofins Cerep SA (KinaseProfiler)
Method: as §1

TLK1(h) = biological target: T24, TLK1(h) (Homo sapiens, UniProt Q9UKI8)
T24 construct: purchased Eurofins Cerep SA (KinaseProfiler)
T24 sequence (Q9UKI8 whole entry): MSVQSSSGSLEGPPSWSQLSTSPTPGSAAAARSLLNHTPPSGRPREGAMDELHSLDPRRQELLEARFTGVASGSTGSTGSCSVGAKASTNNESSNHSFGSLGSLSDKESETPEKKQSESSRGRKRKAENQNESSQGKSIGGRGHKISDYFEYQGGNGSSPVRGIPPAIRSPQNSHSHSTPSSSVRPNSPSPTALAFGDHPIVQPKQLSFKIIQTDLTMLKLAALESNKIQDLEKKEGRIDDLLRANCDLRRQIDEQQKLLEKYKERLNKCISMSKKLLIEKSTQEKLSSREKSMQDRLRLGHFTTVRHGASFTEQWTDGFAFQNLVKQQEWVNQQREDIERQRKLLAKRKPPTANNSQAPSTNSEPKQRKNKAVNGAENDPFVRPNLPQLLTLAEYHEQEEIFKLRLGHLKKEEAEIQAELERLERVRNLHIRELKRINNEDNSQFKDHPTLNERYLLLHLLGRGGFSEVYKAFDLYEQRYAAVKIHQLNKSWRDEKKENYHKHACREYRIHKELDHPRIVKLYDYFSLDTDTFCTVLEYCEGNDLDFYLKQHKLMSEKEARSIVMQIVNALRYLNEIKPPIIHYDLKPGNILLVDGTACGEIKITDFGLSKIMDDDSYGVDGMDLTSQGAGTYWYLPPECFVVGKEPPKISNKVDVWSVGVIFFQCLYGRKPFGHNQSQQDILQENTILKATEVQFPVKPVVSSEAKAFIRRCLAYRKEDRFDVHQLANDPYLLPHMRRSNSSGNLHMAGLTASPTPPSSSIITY
Method: as §1

RIPK1(h) = biological target: T25, RIPK1(h) (Homo sapiens, UniProt Q13546)
T25 construct: purchased Eurofins Cerep SA (KinaseProfiler)
Method: as §1

Rse(h) = biological target: T26, Rse(h) (Homo sapiens, UniProt Q06418)
T26 construct: purchased Eurofins Cerep SA (KinaseProfiler)
Method: as §1

mTOR/FKBP12(h) = biological target: T27, mTOR/FKBP12(h) (Homo sapiens, UniProt P42345)
T27 construct: purchased Eurofins Cerep SA (KinaseProfiler)
Method: as §1

VRK2(h) = biological target: T28, VRK2(h) (Homo sapiens, UniProt Q86Y07)
T28 construct: purchased Eurofins Cerep SA (KinaseProfiler)
Method: as §1

TGFBR2(h) = biological target: T29, TGFBR2(h) (Homo sapiens, UniProt P37173)
T29 construct: purchased Eurofins Cerep SA (KinaseProfiler)
Method: as §1

MSK1(h) = biological target: T30, MSK1(h) (Homo sapiens, UniProt O75582)
T30 construct: purchased Eurofins Cerep SA (KinaseProfiler)
Method: as §1

ACK1(h) = biological target: T31, ACK1(h) (Homo sapiens, UniProt Q07912)
T31 construct: purchased Eurofins Cerep SA (KinaseProfiler)
Method: as §1

[1] = biological target: T32, PI3 Kinase (p110a/p85a)(h) (Homo sapiens, UniProt P42336)
T32 construct: purchased Eurofins Cerep SA (KinaseProfiler)
Method: as §1

eEF-2K(h) = biological target: T33, eEF-2K(h) (Homo sapiens, UniProt O00418)
T33 construct: purchased Eurofins Cerep SA (KinaseProfiler)
Method: as §1

NEK1(h) = biological target: T34, NEK1(h) (Homo sapiens, UniProt Q96PY6)
T34 construct: purchased Eurofins Cerep SA (KinaseProfiler)
T34 sequence (Q96PY6 whole entry): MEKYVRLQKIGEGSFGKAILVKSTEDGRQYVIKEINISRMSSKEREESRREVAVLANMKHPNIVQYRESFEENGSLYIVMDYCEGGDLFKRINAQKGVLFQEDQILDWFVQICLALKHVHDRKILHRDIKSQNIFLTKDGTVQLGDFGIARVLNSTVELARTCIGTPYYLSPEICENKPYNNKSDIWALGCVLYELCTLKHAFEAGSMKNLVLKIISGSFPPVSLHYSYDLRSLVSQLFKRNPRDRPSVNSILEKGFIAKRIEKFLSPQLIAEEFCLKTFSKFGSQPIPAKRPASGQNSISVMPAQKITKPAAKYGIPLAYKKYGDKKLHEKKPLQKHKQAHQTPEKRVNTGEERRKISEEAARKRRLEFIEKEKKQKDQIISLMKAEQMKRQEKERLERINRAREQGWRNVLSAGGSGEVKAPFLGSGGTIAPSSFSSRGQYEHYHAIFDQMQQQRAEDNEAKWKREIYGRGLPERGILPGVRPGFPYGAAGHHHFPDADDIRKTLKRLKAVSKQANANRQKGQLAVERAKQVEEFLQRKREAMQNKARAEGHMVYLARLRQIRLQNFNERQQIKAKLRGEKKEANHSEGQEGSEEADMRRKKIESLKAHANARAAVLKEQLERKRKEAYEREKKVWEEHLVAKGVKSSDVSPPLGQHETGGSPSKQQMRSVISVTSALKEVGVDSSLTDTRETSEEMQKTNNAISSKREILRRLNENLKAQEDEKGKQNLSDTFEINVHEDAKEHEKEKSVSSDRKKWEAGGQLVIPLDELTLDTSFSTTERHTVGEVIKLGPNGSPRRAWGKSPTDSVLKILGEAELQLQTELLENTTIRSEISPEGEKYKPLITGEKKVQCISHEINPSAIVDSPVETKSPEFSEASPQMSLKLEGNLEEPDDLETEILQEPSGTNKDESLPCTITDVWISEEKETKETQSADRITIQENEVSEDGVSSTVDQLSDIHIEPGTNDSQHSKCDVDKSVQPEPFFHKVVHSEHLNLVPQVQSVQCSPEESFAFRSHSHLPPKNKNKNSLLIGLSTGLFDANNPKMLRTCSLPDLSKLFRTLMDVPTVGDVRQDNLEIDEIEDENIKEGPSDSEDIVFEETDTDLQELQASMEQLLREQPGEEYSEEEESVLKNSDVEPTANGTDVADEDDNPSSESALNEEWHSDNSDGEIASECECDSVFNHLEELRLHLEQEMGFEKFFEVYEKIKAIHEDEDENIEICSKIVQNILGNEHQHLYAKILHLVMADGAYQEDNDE
Method: as §1

MLK4(h) = biological target: T35, MLK4(h) (Homo sapiens, UniProt Q5TCX8)
T35 construct: purchased Eurofins Cerep SA (KinaseProfiler)
T35 sequence (Q5TCX8 whole entry): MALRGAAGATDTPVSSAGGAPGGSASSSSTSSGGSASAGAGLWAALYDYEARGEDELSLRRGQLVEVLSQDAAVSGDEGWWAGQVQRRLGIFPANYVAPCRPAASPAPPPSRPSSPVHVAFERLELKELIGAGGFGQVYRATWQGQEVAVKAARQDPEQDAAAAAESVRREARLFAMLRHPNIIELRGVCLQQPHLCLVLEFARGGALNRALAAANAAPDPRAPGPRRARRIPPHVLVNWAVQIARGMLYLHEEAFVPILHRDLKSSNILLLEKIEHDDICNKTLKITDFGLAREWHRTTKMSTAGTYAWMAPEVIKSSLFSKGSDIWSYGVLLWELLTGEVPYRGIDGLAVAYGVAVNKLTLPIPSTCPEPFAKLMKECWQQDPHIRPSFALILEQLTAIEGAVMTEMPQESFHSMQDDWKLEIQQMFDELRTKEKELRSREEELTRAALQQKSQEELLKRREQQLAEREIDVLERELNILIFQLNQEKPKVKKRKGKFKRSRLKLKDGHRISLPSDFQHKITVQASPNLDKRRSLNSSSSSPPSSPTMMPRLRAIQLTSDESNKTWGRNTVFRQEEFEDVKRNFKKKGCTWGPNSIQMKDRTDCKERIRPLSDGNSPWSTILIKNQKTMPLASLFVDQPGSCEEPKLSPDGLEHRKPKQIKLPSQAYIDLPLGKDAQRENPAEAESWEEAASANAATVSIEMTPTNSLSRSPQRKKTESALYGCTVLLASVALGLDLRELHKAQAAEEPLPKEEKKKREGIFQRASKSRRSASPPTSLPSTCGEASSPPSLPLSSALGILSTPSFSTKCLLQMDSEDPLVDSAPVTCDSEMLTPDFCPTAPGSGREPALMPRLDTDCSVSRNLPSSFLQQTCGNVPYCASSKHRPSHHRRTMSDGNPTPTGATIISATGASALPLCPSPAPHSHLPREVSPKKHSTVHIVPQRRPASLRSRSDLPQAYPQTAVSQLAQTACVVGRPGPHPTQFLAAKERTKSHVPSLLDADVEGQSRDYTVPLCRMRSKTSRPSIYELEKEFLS
Method: as §1

CK1γ3(h) = biological target: T36, CK1γ3(h) (Homo sapiens, UniProt Q9Y6M4)
T36 construct: purchased Eurofins Cerep SA (KinaseProfiler)
T36 sequence (Q9Y6M4 whole entry): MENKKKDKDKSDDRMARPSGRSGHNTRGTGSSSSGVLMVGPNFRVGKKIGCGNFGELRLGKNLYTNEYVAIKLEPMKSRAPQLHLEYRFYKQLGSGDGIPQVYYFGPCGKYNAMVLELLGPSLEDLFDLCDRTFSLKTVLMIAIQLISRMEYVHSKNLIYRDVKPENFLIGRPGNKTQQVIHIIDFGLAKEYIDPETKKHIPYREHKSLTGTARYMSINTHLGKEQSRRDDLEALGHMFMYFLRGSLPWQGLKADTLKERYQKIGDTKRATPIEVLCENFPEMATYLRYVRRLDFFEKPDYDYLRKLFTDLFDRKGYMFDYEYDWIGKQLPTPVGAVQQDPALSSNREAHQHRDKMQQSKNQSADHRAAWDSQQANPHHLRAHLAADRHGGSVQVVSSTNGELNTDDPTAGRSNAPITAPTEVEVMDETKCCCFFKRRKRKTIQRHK
Method: as §1

ChaK1(h) = biological target: T37, ChaK1(h) (Homo sapiens, UniProt Q96QT4)
T37 construct: purchased Eurofins Cerep SA (KinaseProfiler)
Method: as §1

NEK4(h) = biological target: T38, NEK4(h) (Homo sapiens, UniProt P51957)
T38 construct: purchased Eurofins Cerep SA (KinaseProfiler)
Method: as §1

Ros(h) = biological target: T39, Ros(h) (Homo sapiens, UniProt P08922)
T39 construct: purchased Eurofins Cerep SA (KinaseProfiler)
Method: as §1

SLK(h) = biological target: T40, SLK(h) (Homo sapiens, UniProt Q9H2G2)
T40 construct: purchased Eurofins Cerep SA (KinaseProfiler)
Method: as §1

EphA3(h) = biological target: T41, EphA3(h) (Homo sapiens, UniProt P29320)
T41 construct: purchased Eurofins Cerep SA (KinaseProfiler)
Method: as §1

T1 sequence (Q00535 whole entry): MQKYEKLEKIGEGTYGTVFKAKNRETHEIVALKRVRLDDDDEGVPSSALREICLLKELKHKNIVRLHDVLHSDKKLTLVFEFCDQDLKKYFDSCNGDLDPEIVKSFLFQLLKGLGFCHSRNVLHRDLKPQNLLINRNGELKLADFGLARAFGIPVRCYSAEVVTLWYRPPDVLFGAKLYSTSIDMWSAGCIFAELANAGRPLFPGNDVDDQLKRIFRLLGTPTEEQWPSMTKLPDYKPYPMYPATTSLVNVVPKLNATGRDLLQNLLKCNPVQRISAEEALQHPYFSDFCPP
T1 sequence (Q15078 99-307 partner limits assumed): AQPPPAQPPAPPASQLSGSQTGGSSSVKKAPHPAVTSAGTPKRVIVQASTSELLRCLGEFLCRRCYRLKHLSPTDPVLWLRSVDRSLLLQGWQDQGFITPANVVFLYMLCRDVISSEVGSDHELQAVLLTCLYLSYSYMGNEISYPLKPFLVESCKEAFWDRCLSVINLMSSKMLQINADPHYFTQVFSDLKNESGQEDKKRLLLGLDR

CN(C)Cc1cccc(Nc2ncc(Cl)c(-c3csc(C(=O)NN4CCOCC4)c3)n2)c1 [SKLB-D18, 4-(5-chloro-2-((3-((dimethylamino)methyl)phenyl)amino)pyrimidin-4-yl)-N-morpholinothiophene-2-carboxamide]
inhibition at 1 µM (CDK5/p25(h)): 55% | inhibition at 1 µM (DDR1(h)): 35% | inhibition at 1 µM (Flt3(h)): 55% | inhibition at 1 µM (HIPK2(h)): 67% | inhibition at 1 µM (PTK5(h)): 35% | inhibition at 1 µM (PKD3(h)): 55% | inhibition at 1 µM (ULK1(h)): 49% | inhibition at 1 µM (cSRC(h)): 55% | inhibition at 1 µM (LTK(h)): 38% | inhibition at 1 µM (PDGFRβ(h)): 21% | inhibition at 1 µM (STK16(h)): 85% | inhibition at 1 µM (GRK6(h)): 2% | inhibition at 1 µM (Fms(h)): 34% | inhibition at 1 µM (EphA2(h)): 17% | inhibition at 1 µM (Lck(h)): 63% | inhibition at 1 µM (TrkC(h)): 43% | inhibition at 1 µM (DYRK1A(h)): 13% | inhibition at 1 µM (TAF1L(h)): 53% | inhibition at 1 µM (JNK1α1(h)): 40% | inhibition at 1 µM (PASK(h)): 13% | inhibition at 1 µM (CDK16/cyclinY(h)): 66% | inhibition at 1 µM (MATK(h)): 2% | inhibition at 1 µM (HIPK1(h)): 68% | inhibition at 1 µM (TLK1(h)): 24% | inhibition at 1 µM (RIPK1(h)): 9% | inhibition at 1 µM (Rse(h)): 12% | inhibition at 1 µM (mTOR/FKBP12(h)): 8% | inhibition at 1 µM (VRK2(h)): -3% | inhibition at 1 µM (TGFBR2(h)): 30% | inhibition at 1 µM (MSK1(h)): 17% | inhibition at 1 µM (ACK1(h)): 14% | inhibition at 1 µM [1]: -2% | inhibition at 1 µM (eEF-2K(h)): -2% | inhibition at 1 µM (NEK1(h)): 48% | inhibition at 1 µM (MLK4(h)): 24% | inhibition at 1 µM (CK1γ3(h)): 14% | inhibition at 1 µM (ChaK1(h)): 0% | inhibition at 1 µM (NEK4(h)): 66% | inhibition at 1 µM (Ros(h)): -4% | inhibition at 1 µM (SLK(h)): 4% | inhibition at 1 µM (EphA3(h)): 12%
